Measured values: patent publication US20130123481A1, “MODIFIED NUCLEOSIDES, NUCLEOTIDES, AND NUCLEIC ACIDS, AND USES THEREOF” (MODERNA THERAPEUTICS, priority 2011, published 2013)

Tests used:
[1] = system: Balb-C mice; test: In Vivo Screening of Luciferase Modified mRNA (bioluminescence, total flux); conditions: fully modified luciferase mRNA in 1×PBS, subcutaneous, 42 to 103 ug, imaged 8 hours after dosing, total flux of entire mouse
Procedure: A control of PBS was also tested. The dosages of the modified luciferase mRNA is also outlined in Table 31. 8 hours after dosing the mice were imaged to determine luciferase expression. Twenty minutes prior to imaging, mice were injected intraperitoneally with a D-luciferin solution at 150 mg/kg. Animals were then anesthetized and images were acquired with an IVIS Lumina II imaging system (Perkin Elmer). Bioluminescence was measured as total flux (photons/second) of the entire mouse.

[2] = system: peripheral blood mononuclear cells (PBMC); test: In Vitro Screening in PBMC - G-CSF protein expression; assay type: cell-based, human; conditions: 500 ng mRNA
From the text: (§1) The supernatant was harvested and stored frozen until analyzed by ELISA to determine the G-CSF protein expression, and the induction of the cytokines interferon-alpha (IFN-α) and tumor necrosis factor alpha (TNF-α).

[3] = system: peripheral blood mononuclear cells (PBMC), IFN-alpha; test: In Vitro PBMC Studies: Percent modification - IFN-alpha expression; assay type: cell-based, human
Procedure: (§2) The supernatant was harvested and run by ELISA 22 hours after transfection to determine the protein expression.

[4] = system: peripheral blood mononuclear cells (PBMC); test: In Vitro PBMC Studies: Percent modification - G-CSF expression; assay type: cell-based, human; conditions: average of PBMC donors D1-D3
Procedure: 480 ng of G-CSF mRNA modified with 5-methylcytosine (5mC) and pseudouridine (pseudoU) or unmodified G-CSF mRNA was transfected with 0.4 uL of Lipofectamine 2000 into peripheral blood mononuclear cells (PBMC) from three normal blood donors (D1, D2, and D3). […] The supernatant was harvested and run by ELISA 22 hours after transfection to determine the protein expression. The expression of IFN-alpha and TNF-alpha may be a secondary effect from the transfection of the G-CSF mRNA.

[5] = system: peripheral blood mononuclear cells (PBMC), TNF-alpha; test: In Vitro PBMC Studies: Percent modification - TNF-alpha expression; assay type: cell-based, human
Procedure: as §2

[6] = system: HeLa cells; test: G-CSF expression in HeLa cells (ELISA); assay type: cell-based, human; conditions: fully modified G-CSF mRNA transfected in HeLa cells, ELISA
Procedure: (§3) To assess the activity of all our different chemical modifications in the context of a second open reading frame, we replicated experiments previously conducted using luciferase mRNA, with human G-CSF mRNA. […] The mutant T7 polymerase was obtained commercially (Durascribe® T7 Transcription kit (Cat. No. DS010925) (Epicentre®, Madison, Wis.).
(§4) The modified RNA in Tables 45 and 46 were transfected in vitro in HeLa cells or added to rabbit reticulysates (250 ng of modified mRNA) as indicated. […] In Table 45, “NT” means not tested.

[7] = system: rabbit reticulysates; test: G-CSF expression in rabbit reticulysates (ELISA); assay type: biochemical; conditions: 250 ng modified G-CSF mRNA in rabbit reticulysates
Procedure: as §3, §4

[8] = system: Salmonella tester strains (TA97a, TA98, TA100 and TA1535) and Escherichia coli strain (WP2 uvrA pKM101); test: Microames Reverse Mutation Screen; conditions: for Cytotoxicity (reduction in the background lawn and/or number of revertants) / increase in the number of revertant colonies as compared with the vehicle control: any strain, with or without metabolic activation; for mutagenic (microAmes screen): up to 250 ug/well, strains TA97a, TA98, TA100, TA1535 and WP2 uvrA pKM101 with or without metabolic activation
Procedure: The microames screen is a version of the full Ames preincubation assay. It detects both frameshift and base-pair substitution mutations using four Salmonella tester strains (TA97a, TA98, TA100 and TA1535) and one Escherichia coli strain (WP2 uvrA pKM101). Strains TA97a and TA98 detect frameshift mutations, and TA100, TA1535 and WP2 uvrA pKM101 detect base-pair substitution mutations. This scaled-down Ames test uses minimal compound, is conducted with and without metabolic activation (S9 fraction), and uses multiwell plates. This teste is a microbial assay to detect the mutagenic potential of test compounds.
Positive control compounds were used at 4 different concentrations to ensure the assay system was sensitive to known mutagenic compounds. DMSO was used as the vehicle control.

[9] = system: peripheral blood mononuclear cells (PBMC), tumor necrosis factor alpha (TNF-α); test: In Vitro Screening in PBMC - tumor necrosis factor alpha (TNF-α) induction; assay type: cell-based, human; conditions: 500 ng fully modified G-CSF mRNA; for TNF-α Expression (pg/ml) Donor 1: Lipofectamine 2000, PBMC Donor 1, supernatant ELISA; for TNF-α Expression (pg/ml) Donor 2: Lipofectamine 2000, PBMC Donor 2, supernatant ELISA; for TNF-α Expression (pg/ml) Donor 3: Lipofectamine 2000, PBMC Donor 3, supernatant ELISA
From the text: as §1

[10] = biological target: wild-type T7 polymerase (Escherichia phage T7, UniProt P00573); test: In Vitro Transcription with Wild-Type T7 Polymerase (transcription and capping yield); conditions: OD260; for In vitro transcription Yield: wild-type T7 polymerase; for Capping reaction Yield: enzymatic capping
wild-type T7 polymerase, sequence (P00573 whole entry): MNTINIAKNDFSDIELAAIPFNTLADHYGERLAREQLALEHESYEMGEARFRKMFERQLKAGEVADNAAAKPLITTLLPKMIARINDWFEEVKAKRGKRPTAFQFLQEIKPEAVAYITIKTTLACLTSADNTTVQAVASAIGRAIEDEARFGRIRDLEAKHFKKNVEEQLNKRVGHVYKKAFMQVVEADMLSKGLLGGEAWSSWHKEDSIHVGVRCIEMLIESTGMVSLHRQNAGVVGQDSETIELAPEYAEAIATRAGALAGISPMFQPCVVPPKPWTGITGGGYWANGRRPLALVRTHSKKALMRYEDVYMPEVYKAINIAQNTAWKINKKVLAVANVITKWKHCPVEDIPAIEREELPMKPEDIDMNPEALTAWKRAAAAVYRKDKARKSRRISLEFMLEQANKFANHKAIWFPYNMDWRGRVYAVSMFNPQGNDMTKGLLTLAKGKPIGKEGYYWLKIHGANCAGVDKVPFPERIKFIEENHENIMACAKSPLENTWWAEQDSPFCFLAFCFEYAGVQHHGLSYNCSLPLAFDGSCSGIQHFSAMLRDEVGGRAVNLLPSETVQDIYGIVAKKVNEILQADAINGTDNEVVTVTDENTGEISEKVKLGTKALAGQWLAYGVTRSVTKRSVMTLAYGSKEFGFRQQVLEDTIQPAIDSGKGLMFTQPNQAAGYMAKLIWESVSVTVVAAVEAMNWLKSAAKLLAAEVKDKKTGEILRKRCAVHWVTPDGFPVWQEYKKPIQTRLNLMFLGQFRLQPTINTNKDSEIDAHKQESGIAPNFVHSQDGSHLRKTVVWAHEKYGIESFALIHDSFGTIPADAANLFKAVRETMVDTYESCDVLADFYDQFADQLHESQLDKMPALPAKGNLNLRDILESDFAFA
Procedure: The luciferase and G-CSF modified mRNA were also subjected to an enzymatic capping reaction and each modified mRNA capping reaction was evaluated for yield by spectrophometic measurement (OD260) and correct size assessed using bioanalyzer.

[11] = system: peripheral blood mononuclear cells (PBMC), interferon-alpha (IFN-α); assay type: cell-based, human; conditions: for IFN-α Expression (pg/ml) Donor 1 / IFN-α Expression (pg/ml) Donor 2 / IFN-α Expression (pg/ml) Donor 3: 500 ng fully modified G-CSF mRNA; for IFN-α Expression (pg/ml) Donor 1: Lipofectamine 2000, PBMC Donor 1, supernatant ELISA; for IFN-α Expression (pg/ml) Donor 2: Lipofectamine 2000, PBMC Donor 2, supernatant ELISA; for IFN-α Expression (pg/ml) Donor 3: Lipofectamine 2000, PBMC Donor 3, supernatant ELISA
From the text: as §1

[12] = Stability of Modified RNA - storage, gel electrophoresis; assay type: physicochemical
Procedure: Stability experiments were conducted to obtain a better understanding of storage conditions to retain the integrity of modified RNA. […] After the mRNA had been stored for 0 hours, 2 hours, 6 hours, 24 hours, 48 hours, 5 days and 14 days, the mRNA was analyzed by gel electrophoresis using a Bio-Rad EXPERION™ system. The modified, unmodified and lipoplexed G-CSF mRNA was also stored in RNASTABLE® (Biomatrica, Inc. San Diego, Calif.) at 40° C. or water at −80° C. or 40° C. for 35 days before being analyzed by gel electrophoresis.

[13] = PBMC Donor 1, 0.4 uL Lipofectamine 2000
[14] = G-CSF modified mRNA (wild-type T7)
[15] = Luciferase modified mRNA (wild-type T7)

O=c1[nH]c(=O)n([C@@H]2O[C@H](CO)[C@@H](O)[C@H]2O)cc1Br [5-bromouridine]
Luciferase expression (photon/second) [1]: 3.75E+07 photon/second | G-CSF Protein Expression [2, 13]: 314 pg/mL | G-CSF Protein Expression ([2]; PBMC Donor 2): 482 pg/mL | G-CSF Protein Expression ([2]; PBMC Donor 3): 291 pg/mL

C[C@]1(CO)O[C@@H](n2ccc(N)nc2=O)[C@H](O)[C@@H]1O [Compound 25, 4′-C-methyl cytidine]
Average IFN-a [3]: 545 pg/mL | Average G-CSF [4]: 122 pg/mL | Average TNF-a [5]: 44 pg/mL

Cc1cn([C@@H]2O[C@H](CO)[C@@H](O)[C@H]2O)c(=O)[nH]c1=O [5-methyluridine]
G-CSF protein (pg/ml) HeLa cells [6]: 347,045 pg/ml | G-CSF protein (pg/ml) Rabbit reticulysates cells [7]: 147,250 pg/ml | Luciferase expression (photon/second) [1]: 7.42E+06 photon/second | G-CSF Protein Expression [2, 13]: 318 pg/mL | G-CSF Protein Expression ([2]; PBMC Donor 2): 359 pg/mL | G-CSF Protein Expression ([2]; PBMC Donor 3): 345 pg/mL

O=c1[nH]cc([C@@H]2O[C@H](CO)[C@@H](O)[C@H]2O)c(=O)[nH]1 [pseudouridine, Pseudouridine]
G-CSF protein (pg/ml) HeLa cells [6]: 1,150,909 pg/ml | G-CSF protein (pg/ml) Rabbit reticulysates cells [7]: 147,875 pg/ml | Luciferase expression (photon/second) [1]: 1.36E+07 photon/second | G-CSF Protein Expression [2, 13]: 2477 pg/mL | G-CSF Protein Expression ([2]; PBMC Donor 2): 1,909 pg/ml | G-CSF Protein Expression ([2]; PBMC Donor 3): 1,498 pg/ml

CN(C)c1nc2c(ncn2[C@@H]2O[C@H](CO)[C@@H](O)[C@H]2O)c(=O)[nH]1 [Compound 50, N,N-dimethyl guanosine]
Average IFN-a [3]: 376 pg/mL | Average G-CSF [4]: 189 pg/mL | Average TNF-a [5]: 28 pg/mL

Cc1cn([C@@H]2O[C@H](CO)[C@@H](O)[C@H]2O)c(=O)nc1N [5-Methylcytidine, reference compound]
Cytotoxicity (reduction in the background lawn and/or number of revertants) [8]: not observed | increase in the number of revertant colonies as compared with the vehicle control [8]: no increase | mutagenic (microAmes screen) [8]: not mutagenic | TNF-α Expression (pg/ml) Donor 1 [9]: 176 pg/mL | TNF-α Expression (pg/ml) Donor 2 [9]: 136 pg/mL | TNF-α Expression (pg/ml) Donor 3 [9]: 193 pg/mL | In vitro transcription Yield ([10]; G-CSF mRNA): 2.05 mg | Capping reaction Yield [10, 14]: 1.08 mg | In vitro transcription Yield ([10]; Luciferase mRNA): 1.29 mg | Capping reaction Yield [10, 15]: 1.02 mg | Luciferase expression (photon/second) [1]: 1.94E+07 photon/second | G-CSF Protein Expression [2, 13]: 291 pg/mL | G-CSF Protein Expression ([2]; PBMC Donor 2): 277 pg/mL | G-CSF Protein Expression ([2]; PBMC Donor 3): 359 pg/mL | IFN-α Expression (pg/ml) Donor 1 [11]: 643 pg/mL | IFN-α Expression (pg/ml) Donor 2 [11]: 359 pg/mL | IFN-α Expression (pg/ml) Donor 3 [11]: 529 pg/mL

CC(=O)Nc1ccn([C@@H]2O[C@H](CO)[C@@H](O)[C@H]2O)c(=O)n1 [N4-acetylcytidine]
G-CSF protein (pg/ml) HeLa cells [6]: 39,545 pg/ml | G-CSF protein (pg/ml) Rabbit reticulysates cells [7]: 8,000 pg/ml | Luciferase expression (photon/second) [1]: 1.11E07 photon/second | G-CSF Protein Expression [2, 13]: 50 pg/mL | G-CSF Protein Expression ([2]; PBMC Donor 2): 136 pg/mL | G-CSF Protein Expression ([2]; PBMC Donor 3): 36 pg/mL

Cn1cc([C@@H]2O[C@H](CO)[C@@H](O)[C@H]2O)c(=O)[nH]c1=O [Compound 1-methylpseudouridine, 1-methylpseudouridine]
Luciferase expression (photon/second) [1]: 7.40E+07 photon/second

Cn1cc([C@@H]2O[C@H](CO)[C@@H](O)[C@H]2O)c(=O)[nH]c1=O [N1-methylpseudouridine]
Cytotoxicity (reduction in the background lawn and/or number of revertants) [8]: not observed | increase in the number of revertant colonies as compared with the vehicle control [8]: no increase | mutagenic (microAmes screen) [8]: not mutagenic | G-CSF protein (pg/ml) Rabbit reticulysates cells [7]: 230,000 pg/ml | TNF-α Expression (pg/ml) Donor 1 [9]: 101 pg/mL | TNF-α Expression (pg/ml) Donor 2 [9]: 106 pg/mL | TNF-α Expression (pg/ml) Donor 3 [9]: 134 pg/mL | In vitro transcription Yield ([10]; G-CSF mRNA): 3.24 mg | Capping reaction Yield [10, 14]: 2.58 mg | In vitro transcription Yield ([10]; Luciferase mRNA): 1.43 mg | Capping reaction Yield [10, 15]: 1.27 mg | G-CSF Protein Expression [2, 13]: 21,495 pg/ml | G-CSF Protein Expression ([2]; PBMC Donor 2): 16,550 pg/ml | G-CSF Protein Expression ([2]; PBMC Donor 3): 12,441 pg/ml | cytokine induction (in words) [11]: no cytokine induction | IFN-α Expression (pg/ml) Donor 1 [11]: 26 pg/mL | IFN-α Expression (pg/ml) Donor 2 [11]: 75 pg/mL | IFN-α Expression (pg/ml) Donor 3 [11]: 138 pg/mL

B1: Modified G-CSF mRNA: G-CSF mRNA fully modified with 5-methylcytosine and pseudouridine, with or without lipoplex (0.75% RNAIMAX) (nucleic acid, listed as Homo Sapiens)
chain: GGGAAAUAAGAGAGAAAAGAAGAGUAAGAAGAAAUAUAAGAGCCACCAUGGCCGGUCCCGCGACCCAAAGCCCCAUGAAACUUAUGGCCCUGCAGUUGCUGCUUUGGCACUCGGCCCUCUGGACAGUCCAAGAAGCGACUCCUCUCGGACCUGCCUCAUCGUUGCCGCAGUCAUUCCUUUUGAAGUGUCUGGAGCAGGUGCGAAAGAUUCAGGGCGAUGGAGCCGCACUCCAAGAGAAGCUCUGCGCGACAUACAAACUUUGCCAUCCCGAGGAGCUCGUACUGCUCGGGCACAGCUUGGGGAUUCCCUGGGCUCCUCUCUCGUCCUGUCCGUCGCAGGCUUUGCAGUUGGCAGGGUGCCUUUCCCAGCUCCACUCCGGUUUGUUCUUGUAUCAGGGACUGCUGCAAGCCCUUGAGGGAAUCUCGCCAGAAUUGGGCCCGACGCUGGACACGUUGCAGCUCGACGUGGCGGAUUUCGCAACAACCAUCUGGCAGCAGAUGGAGGAACUGGGGAUGGCACCCGCGCUGCAGCCCACGCAGGGGGCAAUGCCGGCCUUUGCGUCCGCGUUUCAGCGCAGGGCGGGUGGAGUCCUCGUAGCGAGCCACCUUCAAUCAUUUUUGGAAGUCUCGUACCGGGUGCUGAGACAUCUUGCGCAGCCGUGAAGCGCUGCCUUCUGCGGGGCUUGCCUUCUGGCCAUGCCCUUCUUCUCUCCCUUGCACCUGUACCUCUUGGUCUUUGAAUAAAGCCUGAGUAGGAAG
modifications: 5mC/pseudoU; Cap1; polyA tail
freeze/thaw cycles tolerated [12]: 12 freeze/thaw cycles | stable out to ([12]; stored at 25° C.): 120 h | stable out to ([12]; stored at 37° C.): 24 h | stable out to ([12]; stored at 50° C.): 6 h
